One data set can be described thus: Human Liver Microsome Stability Assay (HLM). In kind it is in vitro ADME. The settings on record: human liver microsomes. An excerpt: The stability of the N-oxide compounds provided herein was studied compared to analogs not having N-oxide. […] This enhanced metabolic stability corresponds to an extended half-life and duration of action when dosed in vivo.
On the technique in general: Liver microsomes are vesicles of endoplasmic reticulum, rich in cytochrome P450 enzymes.
Turning to `CCOc1cc(C(=O)N(C)Cc2cncc3cn[nH]c23)ccc1-c1cccc(F)c1` [A], the “HLM t1/2” value came out at 3.7 min.

The data set is the same for the next values; noted with them: human, liver microsomes, read-out: HLM t1/2.
Take `CCOc1cc(C(=O)N(C)Cc2cncc3cn[nH]c23)ccc1-c1cccc(F)c1` [B]: the half-life is 2 min.
On the same count and under the same terms, the result for `CN(Cc1cncc2cn[nH]c12)C(=O)c1ccc(-c2cccc(F)c2)c(OC2CC2)c1` [C] reads 4 min; that for `CCOc1cc(C(=O)N(C)Cc2c[n+]([O-])cc3cn[nH]c23)ccc1-c1cccc(F)c1` [Compound 001], over 145 min; that for `CN(Cc1c[n+]([O-])cc2cn[nH]c12)C(=O)c1ccc(-c2cccc(F)c2)c(OC2CC2)c1` [Compound 004], over 145 min.
The same measure, in the same setting: the result for `CN(Cc1cccc2cn[nH]c12)C(=O)c1ccc(-c2cccc(F)c2)c(OC2CC2)c1` [D] reads 1.5 min.
